This is an account of results in PubChem BioAssay AID488985 (Sanford-Burnham Center for Chemical Genomics, 2010).

Each structure is given as a SMILES string. Active and inactive are the calls of the source.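 How the source made its calls: active means mean EC50 below 10 µM; inactive means the rest.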

Broadly, the EC50 is the concentration giving half of the maximal effect.

Sequence of Apelin receptor (Homo sapiens) (P35414 whole entry, looked up): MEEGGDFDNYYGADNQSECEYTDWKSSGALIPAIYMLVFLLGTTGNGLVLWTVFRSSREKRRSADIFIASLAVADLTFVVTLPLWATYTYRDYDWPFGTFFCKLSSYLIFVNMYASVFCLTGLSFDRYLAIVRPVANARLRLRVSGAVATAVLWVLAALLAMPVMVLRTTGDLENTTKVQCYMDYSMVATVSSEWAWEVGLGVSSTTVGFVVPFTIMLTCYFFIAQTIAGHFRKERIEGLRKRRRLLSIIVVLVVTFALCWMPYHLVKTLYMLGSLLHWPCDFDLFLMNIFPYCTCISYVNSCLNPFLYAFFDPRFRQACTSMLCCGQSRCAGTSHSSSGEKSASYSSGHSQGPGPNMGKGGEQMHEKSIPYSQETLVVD

The test has as its target Apelin receptor (Homo sapiens) (UniProt P35414). The test is described as follows: APJ agonists, beta-arrestin recruitment, SAR follow-up, cell-based, luminescence, set 2 (AID 488985). Particulars: CHO-K1 AGTRL-1 PathHunter beta-arrestin. On the technique in general: Arrestin recruitment assays detect the binding of arrestin to an activated receptor.
On to `CCN1C(=O)/C(=C/C=C2/Sc3ccccc3N2CC)SC1=S`, for which the EC50 was > 79 µM (inactive).

As to `CC1=CC(=NOS(=O)(=O)c2ccccc2)C(C)=CC1=O`, the EC50 was 6.07 µM.

For `CC1=CC(=O)C=C/C1=N/OS(=O)(=O)c1ccc(C)cc1`, the EC50 was > 79 µM (inactive).

For `CCOc1cc2[nH]c(=S)n(CCN3CCCCC3CC)c(=O)c2cc1OCC` (configuration not stated), the EC50 entry was “inactive”.

On to `CCOc1cc2[nH]c(=S)n(CCCC(=O)NCc3ccccn3)c(=O)c2cc1OCC`, for which the EC50 result was “inactive”.

Turning to `CCc1nnc(NC(=O)CSc2nc3cccnc3n2Cc2ccccc2)s1`, the EC50 is > 79 µM (inactive).

Regarding `CC1=C/C(=N/OS(=O)(=O)c2ccccc2)C(C(C)C)=CC1=O`, the EC50 is 11.9 µM.

As for `CCN1C(=O)/C(=C/C=C2/SC(c3ccccc3)=C(c3ccccc3)N2CC)SC1=S`, the EC50 is > 79 µM (inactive).

Take `CC1=CC(=O)C(C(C)(C)C)=C/C1=N/OS(=O)(=O)c1ccccc1`: the EC50 was 4.2 µM.

Regarding `CC(C)C1=CC(=NOS(=O)(=O)c2ccccc2)C=C(C(C)C)C1=O`, the EC50 was 13.1 µM.

Turning to `CCc1nnc(NC(=O)CSc2nc3cccnc3n2C2CCCCC2)s1`, the EC50 result is “inactive”.

As to `Cc1cc(C)n2nc3nc(N4CCCCC4)nc(-c4ccccc4)c3c2n1`, the EC50 was > 79 µM (inactive).

Turning to `CCOc1ccc(S(=O)(=O)Nc2nc(-c3ccccc3)cs2)cc1`, the EC50 is > 79 µM (inactive).

On to `CCCCN(C)CCn1c(=S)[nH]c2cc(OCC)c(OCC)cc2c1=O`, for which the EC50 entry was “inactive”.

In the case of `Cc1cc(O)c(C2CCCCC2)cc1N=O`, the EC50 was > 79 µM (inactive).

For `CCN1C(c2ccccc2)=C(c2ccccc2)S/C1=C\C=C1/SC(=S)N(C)C1=O`, the EC50 is 4.42 µM.

Regarding `CCOc1cc2[nH]c(=S)n(CCN3CCC(C)CC3)c(=O)c2cc1OCC`, the EC50 was > 79 µM (inactive).
